#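 Cells were grown in 96-well plates and exposed to each compound for 48 hours at five concentrations; endpoints were interpolated linearly between bracketing concentrations, or set to the highest concentration if not reached. TGI: total growth inhibition.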
# How the values were obtained:
# Test in all cases: NCI anticancer screen, dose series, 48 h
# TK-10 renal = test system: TK-10 renal
# HOP-92 NSCLC = test system: HOP-92 NSCLC
# U251 CNS = test system: U251 CNS
# SN12C renal = test system: SN12C renal
# NCI-H23 lung = test system: NCI-H23 lung
# M14 melanoma = test system: M14 melanoma
# SW-620 colon = test system: SW-620 colon
# NCI-H522 lung = test system: NCI-H522 lung
# ACHN renal = test system: ACHN renal
# IGROV1 ovarian = test system: IGROV1 ovarian
# LOX IMVI melanoma = test system: LOX IMVI melanoma
# KM12 colon = test system: KM12 colon
# UO-31 renal = test system: UO-31 renal
# SF-268 CNS = test system: SF-268 CNS
# SF-539 CNS = test system: SF-539 CNS
# SK-MEL-5 melanoma = test system: SK-MEL-5 melanoma
# MDA-MB-435 = test system: MDA-MB-435
# OVCAR-3 ovarian = test system: OVCAR-3 ovarian
# RPMI-8226 leukemia = test system: RPMI-8226 leukemia
# MDA-N = test system: MDA-N
# MALME-3M melanoma = test system: MALME-3M melanoma
# COLO 205 colon = test system: COLO 205 colon
# CCRF-CEM leukemia = test system: CCRF-CEM leukemia
# MOLT-4 leukemia = test system: MOLT-4 leukemia
# UACC-257 melanoma = test system: UACC-257 melanoma
# MCF7 breast = test system: MCF7 breast
# SK-MEL-2 melanoma = test system: SK-MEL-2 melanoma
# NCI/ADR-RES ovarian = test system: NCI/ADR-RES ovarian
# RXF 393 renal = test system: RXF 393 renal
# MDA-MB-231 breast = test system: MDA-MB-231 breast
# A549 NSCLC = test system: A549 NSCLC
# CAKI-1 renal = test system: CAKI-1 renal
# BT-549 breast = test system: BT-549 breast
# HS 578T breast = test system: HS 578T breast
# NCI-H226 lung = test system: NCI-H226 lung
# HOP-62 NSCLC = test system: HOP-62 NSCLC
# HCC-2998 colon = test system: HCC-2998 colon
# OVCAR-4 ovarian = test system: OVCAR-4 ovarian
# PC-3 prostate = test system: PC-3 prostate
# HL-60(TB) leukemia = test system: HL-60(TB) leukemia
# 786-0 renal = test system: 786-0 renal
# A498 renal = test system: A498 renal
# T-47D breast = test system: T-47D breast
# NCI-H460 lung = test system: NCI-H460 lung
# HCT-116 colon = test system: HCT-116 colon
# DU-145 prostate = test system: DU-145 prostate
# HT29 colon = test system: HT29 colon
# SK-MEL-28 melanoma = test system: SK-MEL-28 melanoma
# SK-OV-3 ovarian = test system: SK-OV-3 ovarian
# OVCAR-8 ovarian = test system: OVCAR-8 ovarian
# HCT-15 colon = test system: HCT-15 colon
# UACC-62 melanoma = test system: UACC-62 melanoma
# OVCAR-5 ovarian = test system: OVCAR-5 ovarian
# SNB-75 CNS = test system: SNB-75 CNS
# SNB-19 CNS = test system: SNB-19 CNS
# SR leukemia = test system: SR leukemia
# SF-295 CNS = test system: SF-295 CNS
# EKVX NSCLC = test system: EKVX NSCLC
# K-562 leukemia = test system: K-562 leukemia
smiles,measurement,setting,value
Cc1ccc(C(=O)CCl)o1,TGI,TK-10 renal,> 10 µM
same,TGI,HOP-92 NSCLC,> 10 µM
same,TGI,U251 CNS,> 10 µM
same,TGI,SN12C renal,> 10 µM
same,TGI,NCI-H23 lung,> 10 µM
same,TGI,M14 melanoma,> 10 µM
same,TGI,SW-620 colon,5 µM
same,TGI,NCI-H522 lung,> 5.46 µM
same,TGI,ACHN renal,> 10 µM
same,TGI,IGROV1 ovarian,> 10 µM
same,TGI,LOX IMVI melanoma,8.76 µM
same,TGI,KM12 colon,> 10 µM
same,TGI,UO-31 renal,> 6.21 µM
same,TGI,SF-268 CNS,> 10 µM
same,TGI,SF-539 CNS,> 10 µM
same,TGI,SK-MEL-5 melanoma,> 10 µM
same,TGI,MDA-MB-435,> 10 µM
same,TGI,OVCAR-3 ovarian,> 10 µM
same,TGI,RPMI-8226 leukemia,5.42 µM
same,TGI,MDA-N,> 10 µM
same,TGI,MALME-3M melanoma,> 8.31 µM
same,TGI,COLO 205 colon,> 8.18 µM
same,TGI,CCRF-CEM leukemia,> 7.83 µM
same,TGI,MOLT-4 leukemia,5.68 µM
same,TGI,UACC-257 melanoma,> 10 µM
same,TGI,MCF7 breast,> 10 µM
same,TGI,SK-MEL-2 melanoma,> 10 µM
same,TGI,NCI/ADR-RES ovarian,> 10 µM
same,TGI,RXF 393 renal,> 10 µM
same,TGI,MDA-MB-231 breast,> 10 µM
same,TGI,A549 NSCLC,> 10 µM
same,TGI,CAKI-1 renal,> 7.23 µM
same,TGI,BT-549 breast,> 10 µM
same,TGI,HS 578T breast,> 10 µM
same,TGI,NCI-H226 lung,> 10 µM
same,TGI,HOP-62 NSCLC,> 10 µM
same,TGI,HCC-2998 colon,> 10 µM
same,TGI,OVCAR-4 ovarian,> 10 µM
same,TGI,PC-3 prostate,> 10 µM
same,TGI,HL-60(TB) leukemia,4.22 µM
same,TGI,786-0 renal,9.71 µM
same,TGI,A498 renal,> 10 µM
same,TGI,T-47D breast,> 7.79 µM
same,TGI,NCI-H460 lung,> 10 µM
same,TGI,HCT-116 colon,6.62 µM
same,TGI,DU-145 prostate,> 10 µM
same,TGI,HT29 colon,> 10 µM
same,TGI,SK-MEL-28 melanoma,> 10 µM
same,TGI,SK-OV-3 ovarian,> 10 µM
same,TGI,OVCAR-8 ovarian,> 6.61 µM
same,TGI,HCT-15 colon,> 10 µM
same,TGI,UACC-62 melanoma,> 10 µM
same,TGI,OVCAR-5 ovarian,> 9.57 µM
same,TGI,SNB-75 CNS,> 10 µM
same,TGI,SNB-19 CNS,> 10 µM
same,TGI,SR leukemia,> 10 µM
same,TGI,SF-295 CNS,> 10 µM
same,TGI,EKVX NSCLC,> 10 µM
same,TGI,K-562 leukemia,> 10 µM
CC(O)C1(CNc2cc(Cl)nc(N)n2)CCCC1 (stereo not drawn),TGI,TK-10 renal,> 100 µM
same,TGI,HOP-92 NSCLC,> 100 µM
same,TGI,U251 CNS,> 100 µM
same,TGI,SN12C renal,> 100 µM
same,TGI,NCI-H23 lung,> 100 µM
same,TGI,M14 melanoma,> 100 µM
same,TGI,SW-620 colon,> 100 µM
same,TGI,NCI-H522 lung,> 100 µM
same,TGI,ACHN renal,> 100 µM
same,TGI,IGROV1 ovarian,> 100 µM
same,TGI,LOX IMVI melanoma,> 100 µM
same,TGI,KM12 colon,> 100 µM
same,TGI,UO-31 renal,> 100 µM
same,TGI,SF-268 CNS,> 100 µM
same,TGI,SF-539 CNS,> 100 µM
same,TGI,SK-MEL-5 melanoma,> 100 µM
same,TGI,MDA-MB-435,> 100 µM
same,TGI,OVCAR-3 ovarian,> 100 µM
same,TGI,RPMI-8226 leukemia,> 100 µM
same,TGI,MDA-N,> 100 µM
same,TGI,MALME-3M melanoma,> 100 µM
same,TGI,COLO 205 colon,> 100 µM
same,TGI,CCRF-CEM leukemia,> 100 µM
same,TGI,MOLT-4 leukemia,> 100 µM
same,TGI,UACC-257 melanoma,> 100 µM
same,TGI,MCF7 breast,> 100 µM
same,TGI,SK-MEL-2 melanoma,> 100 µM
same,TGI,NCI/ADR-RES ovarian,> 100 µM
same,TGI,RXF 393 renal,> 100 µM
same,TGI,MDA-MB-231 breast,> 100 µM
same,TGI,A549 NSCLC,> 100 µM
same,TGI,CAKI-1 renal,> 100 µM
same,TGI,BT-549 breast,> 100 µM
same,TGI,HS 578T breast,> 100 µM
same,TGI,NCI-H226 lung,> 100 µM
same,TGI,HOP-62 NSCLC,> 100 µM
same,TGI,HCC-2998 colon,> 100 µM
same,TGI,OVCAR-4 ovarian,> 100 µM
same,TGI,PC-3 prostate,> 100 µM
same,TGI,HL-60(TB) leukemia,> 100 µM
same,TGI,786-0 renal,> 100 µM
same,TGI,A498 renal,> 100 µM
same,TGI,T-47D breast,> 100 µM
same,TGI,NCI-H460 lung,> 100 µM
same,TGI,HCT-116 colon,> 100 µM
same,TGI,DU-145 prostate,> 100 µM
same,TGI,HT29 colon,> 100 µM
same,TGI,SK-MEL-28 melanoma,> 100 µM
same,TGI,SK-OV-3 ovarian,> 100 µM
same,TGI,OVCAR-8 ovarian,> 100 µM
same,TGI,HCT-15 colon,> 100 µM
same,TGI,UACC-62 melanoma,> 100 µM
same,TGI,OVCAR-5 ovarian,> 100 µM
same,TGI,SNB-75 CNS,> 100 µM
same,TGI,SNB-19 CNS,> 100 µM
same,TGI,SR leukemia,> 100 µM
same,TGI,SF-295 CNS,> 100 µM
same,TGI,EKVX NSCLC,> 100 µM
same,TGI,K-562 leukemia,> 100 µM

# — PubChem BioAssay (NCI)
